Experiments:
[1] = Bulk, granule and pellet density measurement; format: physicochemical
From the text: (§1) The increase in density of the granulated material relative to the non-granulated material results in improved flow characteristics which facilitate easier handling during manufacturing processes such as formulation. Bulk and granulated densities can be measured with a measuring cylinder. The values for the bulk (ρb) and tap (ρt) densities can be used to calculate index of compressibility (% Compressibility), which is indicative of the flow properties of the material. The % Compressibility can be calculated by the following formula: % Compressibility=[(ρt−−ρb)/ρt-]×100%. See, e.g., The theory and practice of industrial pharmacy, by L. Lachman, H. Lieberman, and J. Kanig, in Varghese Publishing House, 3rd Indian Edition, (Hind Rajasthan Bldng, Dadar Bombay 400 014), 1987, p. 184. Also, flowability of the material can be determined by Flodex analysis. The Flodex Test Apparatus is ideal for determining the intrinsic flowability of powders (which is recommended for quality control of powders). The Flodex instrument includes a complete set of index flow disks with opening of different diameter. A tested powder is allowed to flow through the opening. […] See, e.g., Composite Method to Quantify Powder Flow as a Screening Method in Early Tablet or Capsule Formulation Development, by Michael K. Taylor, Jeri Ginsburg, Anthony Hickey, and Ferdous Gheyas, in AAPS PharmSciTech, 2000, 1(3): article 18.

[2] = Regional absorption studies; settings: in vivo
[3] = Flowability of the bulk material; format: physicochemical; settings: 500 μm sieved bulk non-granulated material
From the text: as §1

density of the bulk material ([1]; 500 μm sieved bulk non-granulated material): around 0.24 g/cm^3
density of the natural form ([1]; natural (non-granulated) form): about 0.2 g/cm^3
regional absorption [2]: colonic absorption
flowability [3]: very poor flowability
SMILES: CCO[C@@H]1OC(=O)C[C@@H]1NC(=O)[C@@H]1CCCN1C(=O)[C@@H](NC(=O)c1ccc(N)c(Cl)c1)C(C)(C)C [compound of Formula (I)]

From US20080070972A1, “Controlled release formulations” (priority 2006, published 2008)
